Results: publication PMC11079024, “Identification of a family of species-selective complex I inhibitors as potential anthelmintics” (Nature Communications, 2024)
Where two headings read alike, the source gives them in different places.

Columns and labels:
[1] = system: ben-1 mutant (ECA882) C. elegans; assay: microbe, parasite or virus in culture; settings: Caenorhabditis elegans; for viability at 1 µM / viability at 2 µM / viability at 3.9 µM / viability at 15.6 µM / viability at 31.3 µM / viability at 62.5 µM / viability at 125 µM / viability at 250 µM / viability at 500 µM / viability at 1000 µM: read-out: C. elegans ben-1(e1880) development/viability
Procedure, shortened: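 Development and viability scored from single well images as total worm pixels divided by the matching DMSO control value, mean of ≥3 replicates. Worms added as synchronized L1s to HB101 suspension in liquid NGM with compound (1% DMSO v/v), grown 6 days at 20 °C with shaking.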

[2] = system: L1 wild-type C. elegans; settings: for Screen "Hit": 50 μM
[3] = system: L1 wild-type C. elegans; assay: microbe, parasite or virus in culture; settings: Caenorhabditis elegans, read-out: C. elegans KCN Survival Assay LC50, estimated from fitted dose-response curves; mean of at least two biological replicates
[4] = in vitro; settings: human; for viability at 2 days, 3.13 µM / viability at 2 days, 6.25 µM / viability at 2 days, 12.5 µM / viability at 2 days, 25 µM / viability at 2 days, 50 µM / viability at 2 days, 100 µM: HEK293 cells (Flp-In-293)
[5] = read-out: C. elegans (ben-1) Development & Viability Assay LC50
[6] = read-out: C. elegans ben-1 log10 LC50 (converted)
[7] = KCN survival assay, hit = relative motility below 0.25
[8] = Dose 0.2 µM, mean of at least three biological replicates
[9] = HEK293 Cell Viability Assay LC50, HEK293 cells, estimated from fitted dose-response curves, mean of at least two biological replicates
[10] = hit = relative motility below 0.25 3 hours after removal of KCN

| Compound | LC50 [1, 5] [µM] | viability at 1 µM [1] [%] | viability at 2 µM [1] [%] | viability at 3.9 µM [1] [%] | viability at 15.6 µM [1] [%] | viability at 31.3 µM [1] [%] | viability at 62.5 µM [1] [%] | viability at 125 µM [1] [%] | LC50 [1, 6] [µM] | C. elegans KCN Survival ([2]; Dose 0.39 µM) | C. elegans KCN Survival ([2]; Dose 1.56 µM) | C. elegans KCN Survival ([2]; Dose 3.13 µM) | C. elegans KCN Survival ([2]; Dose 6.25 µM) | C. elegans KCN Survival ([2]; Dose 12.5 µM) | C. elegans KCN Survival ([2]; Dose 25 µM) | C. elegans KCN Survival ([2]; Dose 50 µM) | LC50 [3] [µM] | viability at 2 days, 3.13 µM ([4]; HEK293 viability) [%] | viability at 2 days, 6.25 µM ([4]; HEK293 viability) [%] | viability at 2 days, 25 µM ([4]; HEK293 viability) [%] | further results |
| --- | --- | --- | --- | --- | --- | --- | --- | --- | --- | --- | --- | --- | --- | --- | --- | --- | --- | --- | --- | --- | --- |
| Cc1nc2ccccc2n1Cc1ccc(Cl)c(Cl)c1 [Compound 5655567] | 85.3 | 99.9 | 97.1 | 100 | 100 | 99.5 | 84.2 | 10.6 | 85.3 | 0.972 | 0.973 | 0.953 | 0.756 | 0.219 | 0.111 | 0.120 | 8.26 | 100 | 100 | 88.9 | viability at 250 µM [1]: 16.7%; Screen "Hit" [2, 7]: Y (hits were identified as compounds that reduced relative motility below 0.25 (75% reduction)); C. elegans KCN Survival [2, 8]: 0.934; C. elegans KCN Survival ([2]; Dose 100 µM): 0.176; CC50 at 2 days [4, 9]: 64.5 µM; viability at 2 days, 12.5 µM ([4]; HEK293 viability): 100%; viability at 2 days, 50 µM ([4]; HEK293 viability, Dose 50 µM): 72.1%; viability at 2 days, 100 µM ([4]; HEK293 viability): 15.5% |
| Cc1nc2ccccc2n1CCOc1ccccc1Cl [Compound 5561642] | 636 | 97 | 98.6 | 100 | 99.1 | 100 | 91.8 | 98.9 | 635 | 1.047 | 0.991 | 0.985 | 0.849 | 0.500 | 0.148 | 0.182 | 11.7 | 100 | 100 | 100 | viability at 250 µM [1]: 96.4%; viability at 500 µM [1]: 35.3%; viability at 1000 µM [1]: 46.7%; Screen "Hit" [2, 10]: Y (hits were identified as compounds that reduced relative motility below 0.25 (75% reduction)); C. elegans KCN Survival [2, 8]: 0.982; CC50 at 2 days [4]: 93.1 µM; viability at 2 days, 12.5 µM ([4]; HEK293 viability): 100%; viability at 2 days, 50 µM ([4]; HEK293 viability, Dose 50 µM): 81.4%; viability at 2 days, 100 µM ([4]; HEK293 viability): 46.4% |
| Cc1cccc(OCCn2c(C)nc3ccccc32)c1 [Compound 6285199] | 205 | 99.9 | 91.6 | 97.6 | 95.5 | 93.8 | 97.6 | 100 | 205 | 1.011 | 0.994 | 1.093 | 0.980 | 0.810 | 0.165 | 0.143 | 14.7 | 100 | 100 | 100 | viability at 250 µM [1]: 64.8%; Screen "Hit" [2, 10]: Y (hits were identified as compounds that reduced relative motility below 0.25 (75% reduction)); C. elegans KCN Survival [2, 8]: 1.002; C. elegans KCN Survival ([2]; Dose 100 µM): 0.167; CC50 at 2 days [4]: 97.7 µM; viability at 2 days, 12.5 µM ([4]; HEK293 viability): 100%; viability at 2 days, 50 µM ([4]; HEK293 viability, Dose 50 µM): 98.3%; viability at 2 days, 100 µM ([4]; HEK293 viability): 46.5% |
| Cc1ccc(OCCn2cnc3ccccc32)c(C)c1 [Compound 7706808] | > 1000 | 100 | 96.2 | 97 | 98.9 | 97.3 | 93.8 | 89.7 | > 500 | 1.031 | 1.000 | 0.998 | 0.894 | 0.483 | 0.132 | 0.135 | 12 | 100 | 100 | 100 | viability at 250 µM [1]: 94.6%; viability at 500 µM [1]: 76.7%; viability at 1000 µM [1]: 69.9%; LC50 ([1]; read-out: C. elegans ben-1 LC50): > 500 µM; Screen "Hit" [2, 10]: Y (hits were identified as compounds that reduced relative motility below 0.25 (75% reduction)); C. elegans KCN Survival [2, 8]: 0.957; C. elegans KCN Survival ([2]; Dose 100 µM): 0.199; CC50 at 2 days [4]: 89.1 µM; viability at 2 days, 12.5 µM ([4]; HEK293 viability): 100%; viability at 2 days, 100 µM ([4]; HEK293 viability): 36.2%; viability ([4]; HEK293 viability, Dose 50 µM): 94.6% |
| Brc1ccccc1OCCCCn1cnc2ccccc21 [Compound 7924576] | 58.6 | 99.9 | 91.7 | 96.6 | 87.8 | 65.5 | 54 | 3.7 | 58.6 | 0.969 | 0.940 | 0.862 | 0.585 | 0.135 | 0.138 | 0.159 | 6.73 | 96.3 | 98.1 | 82.8 | viability at 250 µM [1]: 4.7%; viability at 500 µM [1]: 2.1%; viability at 1000 µM [1]: 0.7%; Screen "Hit" [2, 7]: Y (hits were identified as compounds that reduced relative motility below 0.25 (75% reduction)); C. elegans KCN Survival ([2]; Dose 100 µM): 0.208; CC50 at 2 days [4, 9]: 44.3 µM; viability at 2 days, 50 µM ([4]; HEK293 viability, Dose 50 µM): 40.2%; viability at 2 days, 100 µM ([4]; HEK293 viability): 6.9% |
| Clc1ccc(OCCn2cnc3ccccc32)c(Cl)c1 [Compound 7221649] | 37.2 | 86.6 | 85.6 | 87.8 | 91.2 | 64.6 | 3.9 | 37.3 | 37.2 | 0.956 | 1.007 | 1.008 | 0.946 | 0.599 | 0.152 | 0.156 | 13 | 100 | 100 | 100 | Screen "Hit" [2, 10]: Y (hits were identified as compounds that reduced relative motility below 0.25 (75% reduction)); C. elegans KCN Survival [2, 8]: 0.959; C. elegans KCN Survival ([2]; Dose 100 µM): 0.254; CC50 at 2 days ([4]; HEK293 Cell Viability Assay LC50, HEK293 cells, estimated from fitted dose-response curves): 55.3 µM; viability at 2 days, 12.5 µM ([4]; HEK293 viability): 100%; viability at 2 days, 50 µM ([4]; HEK293 viability, Dose 50 µM): 61.2%; viability at 2 days, 100 µM ([4]; HEK293 viability): 7.3% |
| Nc1nc2ccccc2n1Cc1ccc(Br)cc1 [Compound 7313068] | 63.1 | – | – | – | – | – | – | – | 63.1 | – | – | – | – | – | – | – | 14.9 | – | – | – | Screen "Hit" [2, 7]: Y (hits were identified as compounds that reduced relative motility below 0.25 (75% reduction)); CC50 at 2 days [4, 9]: 41.7 µM |
